Patent US10876003B2, “Class of stable heptamethine cyanine fluorophores and biomedical applications thereof” (priority 2014, dated 2020)
One block for each compound: values may come before it.

Key:
[1] = Maximum absorbance wavelength in pH 7.4 phosphate-buffered saline; format: physicochemical; details: for λmax: 2 μM in 0.1 M PBS
Protocol: Table 1 includes exemplary compounds according to formula II, in which n is 2, R^1 is —CH2—, m is 2, R^2 is methyl, R^14 to R^17 are methyl, and R^5, R^6, R^8, R^10, R^11 and R^13 are hydrogen. Other substituents are as indicated. The maximum absorbance wavelength (λmax) was measured in pH 7.4 phosphate-buffered saline.
Unless stated otherwise, reactions were conducted in oven-dried glassware under an atmosphere of nitrogen or argon using anhydrous solvents (passed through activated alumina columns) All other commercially obtained reagents were used as received. […] Flash column chromatography was performed using normal phase or reverse phase on a CombiFlash® Rf 200i (Teledyne Isco Inc.). […] Data for ^1H NMR spectra are reported as follows: chemical shift (6 ppm), multiplicity, coupling constant (Hz), and integration. ^13C NMR spectra were recorded on Varian spectrometers (at 100 or 125 MHz). Data for ^13C NMR spectra are reported in terms of chemical shift. IR spectra were recorded on a JASCO FT/IR 4100 spectrometer and are reported in terms of frequency of absorption (cm^−1). High-resolution LC/MS analyses were conducted on a Thermo-Fisher LTQ-Orbitrap-XL hybrid mass spectrometer system with an Ion MAX API electrospray ion source in positive ion mode. Separations were carried out on a narrow-bore (50×2.1 mm), Zorbax Rapid-Resolution, reversed-phase C18 (3.5 μm) column with a flow rate of 250 μL/min with a 10 min, 2-90% gradient of MeCN/H2O containing 0.1% HCOOH. […] Fluorescence traces and quantum yield measurements were recorded on a PTI QuantaMaster steady-state spectrofluorimeter operated by FelixGX 4.0.3 software, with 10 nm excitation and emission slit widths, 0.1 s integration rate, and enabled emission correction.

[2] = Quantum yields, molar absorption coefficients, absorbance and emission spectra; format: physicochemical; details: for ε (M^−1cm^−1): Table 4 footnote: methanol, method b204: PBS, 25° C.; for λem (nm) / λmax (nm): methanol
[3] = methanol; James et al., Theranostics 2013; cited from earlier work
[4] = format: physicochemical; details: buffer, pH 7.4
Protocol: Solutions of commercially available IRDye 800 CW (a phenol-substituted heptamethine cyanine available from Li-Cor Biotechnology, Lincoln, Nebr.) and compound 13 (Glut-Cy-503), 10 μM, were prepared in pH 7.4 phosphate-buffered saline and exposed to physiologically relevant concentrations of glutathione (GSH, 1 mM) at room temperature. […] Upon analysis by LCMS, signals consistent with the glutathione adduct were observed concomitant with the disappearance of the phenol (IRDye 800 CW) (FIG. 7).

SMILES: CCCN1/C(=C/C=C2\CCCC(/C=C/C3=[N+](CCC)c4ccccc4C3(C)C)=C2N(C)CCO)C(C)(C)c2ccccc21 [Compound 6]
- broad hypsochromic absorbance maximum ([1]; solvent not given): 687 nm

SMILES: CCCN1/C(=C/C=C2\CCCC(/C=C/C3=[N+](CCC)c4ccccc4C3(C)C)=C2OCCN(C)C(=O)OCC2c3ccccc3-c3ccccc32)C(C)(C)c2ccccc21 [Compound 9]
- λmax ([1]; pH 7.4, with 20% DMSO (v/v)): 765 nm

SMILES: CC1(C)C(=CC=C2CCCC(C=CC3=[N+](CCCCS(=O)(=O)[O-])c4ccccc4C3(C)C)=C2Cl)N(CCCCS(=O)(=O)[O-])c2ccccc21.[Na+] [IR783]
- Φf of standard [3]: 0.084

Further lines, with some results ahead:

- λmax ([1]; pH 7.4, with 20% DMSO (v/v)): 763 nm
- λex [2]: 774 nm
- ε (M^−1cm^−1) [2]: 187,000 M^−1cm^−1
- Φf ([2]; measured in methanol relative to ICG): 0.22
- λem (nm) [2]: 797 nm
- λmax (nm) [2]: 774 nm
SMILES: CCCN1/C(=C/C=C2\CCCC(/C=C/C3=[N+](CCC)c4ccccc4C3(C)C)=C2OCCN(C)C(=O)OCc2ccccc2)C(C)(C)c2ccccc21 [Compound 8]

- λmax ([1]; pH 7.4, with 0.1% DMSO (v/v)): 760 nm
SMILES: CCCN1/C(=C/C=C2\CCCC(/C=C/C3=[N+](CCC)c4ccccc4C3(C)C)=C2OCCN(C)C(=O)CCCC(=O)O)C(C)(C)c2ccccc21 [Compound 10]

- ε (M^−1cm^−1) [2]: 204,000 M^−1cm^−1
- λem (nm) [2]: 822 nm
- λmax (nm) [2]: 785 nm
SMILES: CC1(C)C(/C=C/C=C/C=C/C=C2\N(CCCCS(=O)(=O)O)c3ccc4ccccc4c3C2(C)C)=[N+](CCCCS(=O)(=O)[O-])c2ccc3ccccc3c21 [ICG, indocyanine green, reference compound]
- Φf of standard [3]: 0.078

- t1/2 of degradation to the glutathione adduct [4]: 50 min
SMILES: CC1(C)C(=CC=C2CCCC(C=CC3=[N+](CCCCCC(=O)[O-])c4ccc(S(=O)(=O)[O-])cc4C3(C)C)=C2Oc2ccc(S(=O)(=O)[O-])cc2)N(CCCCS(=O)(=O)[O-])c2ccc(S(=O)(=O)[O-])cc21.[Na+].[Na+].[Na+].[Na+] [IRDye 800 CW]
